Measurements taken from publication PMC8869358, “High-Throughput Chemical Screening and Structure-Based Models to Predict hERG Inhibition” (Biology, 2022).
Read-outs that look alike come from different tables or passages of the source.

What was measured:
[1] = target: T1, hERG (Homo sapiens, UniProt Q12809); assay: Tox21 qHTS FluxOR thallium flux assay in hERG-U2OS cells
Method: The hERG-U2OS cell line was purchased from Codex BioSolution, Inc. (Gaithersburg, MD, USA). All the cell culture reagents were obtained from Invitrogen (Life Technologies, Madison, WI, USA). The hERG-U2OS cells were cultured in DMEM with Glutamax containing 10% fetal bovine serum (FBS), 1% of Non-Essential AA (NEAA), 50 U/mL penicillin, 50 μg/mL streptomycin, and 1 µg/mL puromycin. The cells were maintained at 37 °C under a humidified atmosphere and 5% CO2.
A FluxORTM thallium flux assay was performed in hERG-U2OS cells with stable hERG expression, as previously described. In this assay, thallium ions are used as surrogates for K^+ ions to monitor the activity of the hERG K^+ channel. […] The hERG-U2OS cells suspended in culture medium were dispensed at 1000 cells/well/3μL into 1536-well, black wall/clear-bottom plates using a Multidrop Combi dispenser (Thermo Fisher, Waltham, MA, USA). After the assay plates were incubated at 37 °C overnight, 3 μL of Loading Buffer provided from FluxOR II Potassium Ion Channel Assay Kit (Life Technologies, Carlsbad, CA, USA) was added to each assay well. The assay plates were then incubated at room temperature in the dark for 1 h, followed by the addition of 23 nL of compound, dissolved in DMSO, DMSO only, or positive control, to the assay plate. Each compound was tested at 15 concentrations in three independent runs.
Multiple criteria were used to select each small molecule, including properties allowing for high-throughput screens (HTS) (molecular weight, volatility, solubility, logP), commercial availability, possible and definite environmental hazards, or exposure concerns, and cost. A diverse group of 88 compounds was selected to be used as an internal control and plated in duplicate on each library plate to perform reproducibility analysis as well as to determine positional plate effects. Each compound in the Tox21 10K compound library was subjected to analytical chemistry quality control (QC), which provides information on the purity and identity of each sample. […] The compounds were serially diluted in Dimethylsulfoxide (DMSO) to 15 concentrations in 1536-well plates, covering a concentration range of up to four orders of magnitude.
Many of these chemicals were sourced independently by NTP/EPA/NCATS from different vendors or the same vendor but different batches; these chemicals have been tested in replicates. Compound concentration-response data analysis was performed as previously described. […] The dataset was then corrected using the DMSO-only compound plates at the beginning and end of the compound plate stack by applying an in-house pattern correction algorithm. The half-maximum inhibition values (IC50) for each compound and maximum response (efficacy) values were obtained by fitting the concentration-response curves of each compound to a four-parameter Hill equation [24]. […] To identify chemicals with the potential to inhibit the hERG channel, we selected only antagonist chemicals with curve rank −5 to −9.

[2] = target: T1, hERG; assay: cell-based; details: (-LOG10(IC50), µM)
[3] = target: T1, hERG; assay: in vitro; details: (-LOG10(IC50), µM)
[4] = hERG-U2OS cells, thallium flux, qHTS, result in words

T1 sequence (Q12809 whole entry): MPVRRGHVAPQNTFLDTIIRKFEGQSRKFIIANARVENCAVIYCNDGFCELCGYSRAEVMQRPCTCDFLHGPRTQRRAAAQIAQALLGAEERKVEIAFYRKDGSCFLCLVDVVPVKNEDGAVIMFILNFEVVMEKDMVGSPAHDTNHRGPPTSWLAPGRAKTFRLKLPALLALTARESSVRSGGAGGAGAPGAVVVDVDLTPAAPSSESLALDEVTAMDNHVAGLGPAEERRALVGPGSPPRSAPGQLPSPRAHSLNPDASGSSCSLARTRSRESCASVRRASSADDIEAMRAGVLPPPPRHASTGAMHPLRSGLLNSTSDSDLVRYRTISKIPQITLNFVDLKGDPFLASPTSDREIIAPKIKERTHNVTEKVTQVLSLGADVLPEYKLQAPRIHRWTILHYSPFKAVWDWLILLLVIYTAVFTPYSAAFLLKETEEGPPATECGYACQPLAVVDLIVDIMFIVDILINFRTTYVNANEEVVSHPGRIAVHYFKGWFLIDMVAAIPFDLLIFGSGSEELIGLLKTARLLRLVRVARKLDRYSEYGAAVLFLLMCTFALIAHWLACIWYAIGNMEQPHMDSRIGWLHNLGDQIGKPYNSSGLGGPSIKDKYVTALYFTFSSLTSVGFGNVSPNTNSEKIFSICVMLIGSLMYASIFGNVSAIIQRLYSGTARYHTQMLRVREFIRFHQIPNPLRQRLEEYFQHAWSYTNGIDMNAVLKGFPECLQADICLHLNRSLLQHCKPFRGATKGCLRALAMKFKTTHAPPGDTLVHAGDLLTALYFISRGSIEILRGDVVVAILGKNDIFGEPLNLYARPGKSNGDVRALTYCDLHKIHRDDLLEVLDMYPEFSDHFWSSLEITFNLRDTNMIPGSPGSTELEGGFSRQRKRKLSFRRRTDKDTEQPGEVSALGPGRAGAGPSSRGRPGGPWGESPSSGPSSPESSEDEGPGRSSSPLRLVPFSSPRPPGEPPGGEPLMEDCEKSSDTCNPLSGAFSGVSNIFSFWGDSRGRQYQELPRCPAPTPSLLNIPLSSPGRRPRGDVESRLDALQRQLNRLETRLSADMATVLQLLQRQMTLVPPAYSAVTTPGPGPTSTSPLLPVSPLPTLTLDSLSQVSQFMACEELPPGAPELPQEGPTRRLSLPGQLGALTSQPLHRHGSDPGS

Row | SMILES | IC50 [2] [µM] | activity outcome for hERG inhibition in the assay [1, 4] | also measured
1 | O=S1OCC2C(CO1)C1(Cl)C(Cl)=C(Cl)C2(Cl)C1(Cl)Cl (stereo not shown) [Endosulfan] | 32.1 | – | activity outcome for hERG inhibition in the assay [1]: inhibitory activity
2 | CCCCCCCC[P+](CCCCCCCC)(CCCCCCCC)CCCCCCCC.[Br-] [tetraoctylphosphonium bromide] | 0.402 | most active | –
3 | Cl[C@H]1[C@H](Cl)[C@@H](Cl)[C@@H](Cl)[C@H](Cl)[C@H]1Cl [lindane] | 45 | – | activity outcome for hERG inhibition in the assay [1]: inhibitory activity
4 | CC1(C)C2(Cl)C(Cl)C(Cl)C(Cl)(C(Cl)Cl)C1(Cl)C2Cl (stereo not shown) [Strobane] | – | – | IC50 ([3]; herg fluxor ii thallium influx): 41.2 µM
5 | CCNc1ccc(C(=C2C=CC(=[N+](CC)CC)C=C2)c2ccc(N(CC)CC)cc2)c2ccccc12.[Cl-] [basic blue 7] | 0.526 | most active | –
6 | CCCCCCCCCCCCCC[P+](CCCC)(CCCC)CCCC.[Cl-] [tributyltetradecylphosphonium chloride] | 0.334 | most active | –
7 | CCCCCCCC[N+](C)(CCCCCCCC)CCCCCCCC.O=S(=O)([O-])C(F)(F)F [Methyltrioctylammonium trifluoromethanesulfonate] | 0.109 | – | Aff (affinity classification) [1]: 1; activity outcome for hERG inhibition in the assay [1]: most active
8 | C=C1C(CCl)(CCl)C2(Cl)C(Cl)C(Cl)C1(Cl)C2(Cl)Cl (stereo not shown) [Toxaphene] | – | – | IC50 ([3]; fluxor ii thallium influx herg): 35.6 µM
9 | CC(C)(C)c1ccc(CSc2cnn(C(C)(C)C)c(=O)c2Cl)cc1 [Pyridaben] | 18.8 | inhibitory activity | –
10 | c1cc[c]([Sb]([c]2ccccc2)[c]2ccccc2)cc1 [Triphenylstibine] | – | – | IC50 ([3]; herg fluxor ii thallium influx): 17.4 µM
11 | CCCCCCCCCCCC[N+](C)(C)Cc1ccccc1 [Benzyldodecyldimethylammonium bromide] | – | – | IC50 ([3]; fluxor ii thallium influx herg): 1.25 µM
12 | C=CCC1=C(C)C(OC(=O)C2C(C=C(C)C)C2(C)C)CC1=O (stereo not shown) [allethrin] | 32.3 | – | activity outcome for hERG inhibition in the assay [1]: inhibitory activity
13 | CC1(C)CNC(=NN=C(/C=C/c2ccc(C(F)(F)F)cc2)/C=C/c2ccc(C(F)(F)F)cc2)NC1 [hydramethylnon] | 0.436 | most active | –
14 | CC(CCc1ccccc1)NCC(O)c1ccc(O)c(C(N)=O)c1 (stereo not shown) [Labetalol] | 13.3 | – | activity outcome for hERG inhibition in the assay [1]: active
15 | C#CCC1=C(C)C(OC(=O)C2C(C=C(C)C)C2(C)C)CC1=O (stereo not shown) [prallethrin] | 46.8 | inhibitory activity | –
16 | C/C=C/C(=O)Oc1ccccc1[N+](=O)[O-] [Dinocap] | 20.3 | inhibitory activity | –
17 | ClC1=C(Cl)C2(Cl)C3C(Cl)C(Cl)CC3C1(Cl)C2(Cl)Cl (stereo not shown) [Technical chlordane] | – | – | IC50 ([3]; herg fluxor ii thallium influx): 28.5 µM
18 | O=C(CCCN1CCC(O)(c2ccc(Br)cc2)CC1)c1ccc(F)cc1 [Bromperidol] | 0.249 | most active | –
19 | CCCCCCCCCCCC[N+](C)(C)Cc1ccccc1 [Benzyldimethyldodecylammonium chloride] | – | – | IC50 ([3]; herg fluxor ii thallium influx): 1.21 µM
20 | OC(CN1CCC(Cc2ccc(F)cc2)CC1)c1ccc(Cl)cc1 (stereo not shown) [Eliprodil] | – | most active | IC50 ([1]; (-LOG10(IC50), µM), Supplementary File S2, Tox21 chemical library): 0.0916 µM; IC50 ([1]; IC50, hERG-U2OS cells, thallium flux, qHTS, 15 concentrations, three runs): 0.09 µM
21 | CCNc1cc2[o+]c3cc(NCC)c(C)cc3c(-c3ccccc3C(=O)OCC)c2cc1C [Rhodamine 6G] | – | – | IC50 ([3]; herg fluxor ii thallium influx): 2.45 µM
22 | CC(=O)[O-].CC(=O)[O-].[Hg+2] [Mercury(II) acetate] | – | – | IC50 ([3]; herg fluxor ii thallium influx): 6.16 µM
23 | CCCCCCCC[N+](CCCCCCCC)(CCCCCCCC)CCCCCCCC.[Br-] [tetra-N-octylammonium bromide] | 0.745 | – | activity outcome for hERG inhibition in the assay [1]: most active
